Assay results as given in patent US8293734B2, “Nitroimidazooxazine and nitroimidazooxazole analogues and their uses” (priority 2009, dated 2012).
≈ marks a conversion by molar mass, not a printed value. Where two headings read alike, the source gives them in different places.

Columns and labels:
[1] = test system: M. tuberculosis bacteria in the non-replicating state; assay: LORA low-oxygen-recovery assay, MIC (anaerobic); assay type: cell-based; settings: Mycobacterium tuberculosis, 264 h; 11 day luminescence-based low-oxygen-recovery assay
[2] = test system: Trypanosoma cruzi amastigotes (Tulahuen C2C4 strain); assay: Trypanosoma cruzi assay in infected L-6 cells; assay type: cell-based; settings: L6, 96 h incubation, read-out: IC50 T. cruzi
Experimental: (§1) (c) Antiprotozoal screening. Compounds were evaluated for their activities against both Trypanosoma cruzi amastigotes and Leishmania donovani amastigotes (free or encapsulated in macrophages), according to the following protocols:
(i) Trypanosoma cruzi assay. L-6 cells (2×10^3) in medium (100 μL of RPMI 1640 supplemented with 2 mM L-glutamine plus 10% heat inactivated fetal calf serum) were seeded in 96-well microtitre plates (Costar™) and incubated at 37° C. (5% CO2) for 1d. A suspension (50 μL) of Trypanosoma cruzi trypomastigotes (5×10^3 of Tulahuen C2C4 strain, containing the β-galactosidase gene) was added, and the cells were incubated at 37° C. (5% CO2) for a further 48 h to establish the infection. The medium was removed and replaced by fresh medium and the infected cells were then incubated at 37° C. (5% CO2) for 96 h in either medium alone or in the presence of serial (3-fold) dilutions of test compounds (initially prepared as 10 mg/mL stock solutions in DMSO and diluted into medium). Benznidazole was employed as a standard in each assay. Following incubation, chlorophenol red glycoside (100 mM) in 0.1% Nonidet P40/PBS (50 μL) was added, and (after 6 h) the absorbance at 540 nm was measured and used to calculate the IC50 values.

[3] = test system: Axenically grown L. donovani amastigotes (MHOM-ET-67/L82); assay: Axenic Leishmania donovani assay; assay type: cell-based; settings: 70 h incubation, read-out: IC50 L. donovani axen
Experimental: as §1
(ii) Axenic Leishmania donovani assay. Axenically grown L. donovani amastigotes (MHOM-ET-67/L82) from a healthy culture in log phase were seeded at a density of 1×10^6/mL medium (SM, pH 5.4 plus 10% heat inactivated fetal calf serum) in 96-well microtitre plates (Costar™) and incubated at 37° C. (5% CO2) for 70 h in either medium alone or in the presence of serial (3-fold) dilutions of test compounds (initially prepared as 10 mg/mL stock solutions in DMSO and diluted into medium). Miltefosin was employed as a standard in each assay. After incubation, Resazurin fluorescent dye was added to each well, and incubation was continued for an additional 2 h. The IC50 values were determined from measurements of the fluorescence data.

[4] = test system: replicating Mycobacterium tuberculosis; assay: MABA microplate Alamar blue assay, MIC (aerobic); assay type: cell-based; settings: 192 h
[5] = test system: L. donovani amastigotes (MHOM-ET-67/L82) in mouse macrophages; assay: Leishmania donovani infected macrophage assay; assay type: cell-based; settings: 96 h incubation, read-out: IC50 L. donovani macro
Experimental: as §1
(iii) Leishmania donovani infected macrophage assay. Freshly harvested mouse macrophages in medium (RPMI 1640 plus 10% heat inactivated fetal calf serum) were incubated at 37° C. (5% CO2) for 24 h and then infected (1:3 macrophages to amastigotes) with an axenic L. donovani amastigote culture (MHOM-ET-67/L82) in medium (SM, pH 5.4 plus 10% heat inactivated fetal calf serum). The infected macrophages were seeded at a density of 1.2×10^6/mL (by diluting in RPMI+10% FCS) in 16-well slides (Lab-tek™) and incubated at 37° C. (5% CO2) for 24 h. The medium was removed and replaced by fresh medium (RPMI 1640+10% FCS), and this was repeated following mixing. The infected macrophages were then incubated at 37° C. (5% CO2) for 96 h in either medium alone or in the presence of serial (3-fold) dilutions of test compounds (initially prepared as 10 mg/mL stock solutions in DMSO and diluted into medium). Miltefosin was employed as a standard in each assay. […], the slides were fixed (5 min in 100% MeOH) and stained (10% Giemsa, 10 min). The ratio of infected to uninfected macrophages was determined by microscopic examination, and the IC50 values were then calculated by linear regression analysis.

VERO cells (CCL-81) = assay: Mammalian cell cytotoxicity assay (tetrazolium dye); assay type: cell-based; settings: Chlorocebus sabaeus, read-out: IC50 VERO
Experimental: (b) Mammalian cell cytotoxicity assay. This was assessed against VERO cells (CCL-81, American Type Culture Collection) in a 72 h exposure, using a tetrazolium dye assay (Falzari et al., 2005).

[6] = Stability to human liver microsomes; assay type: in vitro ADME; settings: 1 μM compound, 60 min, 37° C., 0.5 mg/mL protein
Experimental: (a) Stability of the compounds to human and mouse microsomes. Test compounds (1 μM) were incubated at 37° C. with pooled human or CD-1 mouse liver microsome preparations (0.5 mg/mL final protein concentration) and an NADPH regenerating system (MgCl2, 3.3 mM; G6P, 3.3 mM; G6PD, 0.4 U/mL; NADP+, 1.3 mM) in phosphate buffer (75 mM, pH 7.4), with a final volume of 200 μL. The compounds were dissolved in DMSO such that the final DMSO concentration was 0.5%. Reactions were stopped at 0 and 60 min by the addition of MeCN (100 μL) containing 0.2 μM metoprolol as an internal standard. Samples were diluted 10× and centrifuged prior to analysis by LC-MS/MS using electrospray ionization and SRM monitoring using a gradient LC method. LC peak areas were integrated and expressed as analyte/IS peak area ratios (PAR), and a mean value for each time point was calculated from the duplicates. The percent remaining value was calculated as: % remaining=100×(Mean PART60/Mean PART0).

M. tuberculosis Erdman = assay: In vivo mouse acute TB infection assay; design: species or system BALB/c mice; settings: for In vivo efficacy vs PA-824: 100 mg/kg orally daily 5 days a week for 3 weeks, ratio of average lung CFU reduction to that of PA-824

SMILES | MIC [1] [µM] | IC50 [2] [µg/mL] | IC50 [3] [µg/mL] | MIC [4] [µM] | IC50 [5] [µg/mL] | melting point [°C] | IC50 (VERO cells (CCL-81); 72 h exposure) [µM] | Microsomes (% remaining) Human [6] [%] | In vivo efficacy vs PA-824 (M. tuberculosis Erdman) | log reductions in CFU (M. tuberculosis Erdman; lungs, vs vehicle alone-treated mice, day 31, 'up to') | IC50 (VERO cells (CCL-81); 72 h) [µM]
O=[N+]([O-])c1cn2c(n1)OCC(COCc1cccc(-c3ccc(OC(F)(F)F)cc3)c1)C2 (stereo not drawn) [Compound 74, 2-nitro-6-({[4′-(trifluoromethoxy)[1,1′-biphenyl]-3-yl]methoxy}methyl)-6,7-dihydro-5H-imidazo[2,1-b][1,3]oxazine] | 2.9 (≈ 1.3 µg/mL) | 0.94 (≈ 2.09 µM) | 0.16 (≈ 0.356 µM) | 0.22 (≈ 0.0989 µg/mL) | 0.54 (≈ 1.2 µM) | 78 to 80 | > 128 |  |  |  | 
O=[N+]([O-])c1cn2c(n1)OC(COCc1cccc(OC(F)(F)F)c1)CC2 (stereo not drawn) [Compound 47, 2-nitro-7-({[3-(trifluoromethoxy)benzyl]oxy}methyl)-6,7-dihydro-5H-imidazo[2,1-b][1,3]oxazine] | 15 (≈ 5.6 µg/mL) | 1.1 (≈ 2.95 µM) | 0.041 (≈ 0.11 µM) | 3.8 (≈ 1.42 µg/mL) | 0.084 (≈ 0.225 µM) | 100 to 112 |  |  |  |  | 
CC1(COCc2ccc(OCc3ccccc3)cc2)Cn2cc([N+](=O)[O-])nc2O1 (stereo not drawn) [Compound 26, 2-({[4-(benzyloxy)benzyl]oxy}methyl)-2-methyl-6-nitro-2,3-dihydroimidazo[2,1-b][1,3]oxazole] | 50 (≈ 19.8 µg/mL) | 0.34 (≈ 0.86 µM) | 0.013 (≈ 0.0329 µM) | 0.3 (≈ 0.119 µg/mL) | 0.36 (≈ 0.91 µM) | 130 to 131 | > 128 |  |  |  | 
O=[N+]([O-])c1cn2c(n1)OC(COCc1cccc(-c3ccc(OC(F)(F)F)cc3)c1)CC2 (stereo not drawn) [Compound 50, 2-nitro-7-({[4′-(trifluoromethoxy)[1,1′-biphenyl]-3-yl]methoxy}methyl)-6,7-dihydro-5H-imidazo[2,1-b][1,3]oxazine] | 5.1 (≈ 2.29 µg/mL) | 6.3 (≈ 14 µM) | 0.041 (≈ 0.0912 µM) | 0.24 (≈ 0.108 µg/mL) | 0.15 (≈ 0.334 µM) | 117 to 119 | > 128 |  |  |  | 
O=[N+]([O-])c1cn2c(n1)OC[C@@H](OCc1ccc(OC(F)(F)F)cc1)C2 [PA-824, reference compound] |  |  |  |  |  |  |  | 82 | 1.00 | 2.5-3 log | 
COc1ccc(-c2ccc(OCC3(C)Cn4cc([N+](=O)[O-])nc4O3)cc2)cn1 (stereo not drawn) [Compound 8, 2-{[4-(6-methoxy-3-pyridinyl)phenoxy]methyl}-2-methyl-6-nitro-2,3-dihydroimidazo[2,1-b][1,3]oxazole] | 14 (≈ 5.35 µg/mL) | 4.1 (≈ 10.7 µM) | 0.017 (≈ 0.0445 µM) | 0.04 (≈ 0.0153 µg/mL) | 0.38 (≈ 0.994 µM) | 217 to 219 | > 128 |  |  |  | 
CC1(COc2ccc(-c3ccc(C#N)cc3)cc2)Cn2cc([N+](=O)[O-])nc2O1 (stereo not drawn) [Compound 9, 4′-[(2-methyl-6-nitro-2,3-dihydroimidazo[2,1-b][1,3]oxazol-2-yl)methoxy][1,1′-biphenyl]-4-carbonitrile] | 3.7 (≈ 1.39 µg/mL) | 1.2 (≈ 3.19 µM) | 0.016 (≈ 0.0425 µM) | 0.04 (≈ 0.0151 µg/mL) | 0.2 (≈ 0.531 µM) | 180 to 181 | > 128 |  |  |  | 
CC1(COCc2ccc(OCc3ccccc3)cc2)CCn2cc([N+](=O)[O-])nc2O1 (stereo not drawn) [Compound 54, 7-({[4-(benzyloxy)benzyl]oxy}methyl)-7-methyl-2-nitro-6,7-dihydro-5H-imidazo[2,1-b][1,3]oxazine] | 1.4 (≈ 0.573 µg/mL) | 0.74 (≈ 1.81 µM) | 0.047 (≈ 0.115 µM) | 0.2 (≈ 0.0819 µg/mL) | 0.095 (≈ 0.232 µM) | 109 to 111 | > 128 |  |  |  | 
O=[N+]([O-])c1cn2c(n1)OC(COCc1ccc(-c3ccc(OC(F)(F)F)cc3)cc1)CC2 (stereo not drawn) [Compound 51, 2-nitro-7-({[4′-(trifluoromethoxy)[1,1′-biphenyl]-4-yl]methoxy}methyl)-6,7-dihydro-5H-imidazo[2,1-b][1,3]oxazine] | 1.5 (≈ 0.674 µg/mL) | 15 (≈ 33.4 µM) | 0.046 (≈ 0.102 µM) | 0.055 (≈ 0.0247 µg/mL) | 0.17 (≈ 0.378 µM) | 159 to 161 | > 128 |  |  |  | 
CC1(COc2ccc(OCc3ccccc3)cc2)Cn2cc([N+](=O)[O-])nc2O1 (stereo not drawn) [Compound 7, 2-{[4-(benzyloxy)phenoxy]methyl}-2-methyl-6-nitro-2,3-dihydroimidazo[2,1-b][1,3]oxazole] | 24 (≈ 9.15 µg/mL) | 3.2 (≈ 8.39 µM) | 0.016 (≈ 0.042 µM) | 0.53 (≈ 0.202 µg/mL) | 0.4 (≈ 1.05 µM) | 162 to 165 |  |  |  |  | 
CC1(COc2ccc(-c3ccc(OC(F)(F)F)cc3)cc2)Cn2cc([N+](=O)[O-])nc2O1 (stereo not drawn) [Compound 12, 2-methyl-6-nitro-2-({[4′-(trifluoromethoxy)[1,1′-biphenyl]-4-yl]oxy}methyl)-2,3-dihydroimidazo[2,1-b][1,3]oxazole] |  | 9.4 (≈ 21.6 µM) | 0.016 (≈ 0.0368 µM) |  | 0.74 (≈ 1.7 µM) | 209 to 211 | > 128 |  | 112 |  | 
O=[N+]([O-])c1cn2c(n1)OCC(COCc1cccc(OC(F)(F)F)c1)C2 (stereo not drawn) [Compound 71, 2-nitro-6-({[3-(trifluoromethoxy)benzyl]oxy}methyl)-6,7-dihydro-5H-imidazo[2,1-b][1,3]oxazine] | 15 (≈ 5.6 µg/mL) | 0.56 (≈ 1.5 µM) | 0.2 (≈ 0.536 µM) | 0.33 (≈ 0.123 µg/mL) | 0.65 (≈ 1.74 µM) | 60 to 61 | > 128 |  |  |  | 
O=[N+]([O-])c1cn2c(n1)OCC(COCc1ccc(-c3ccc(OC(F)(F)F)cc3)cc1)C2 (stereo not drawn) [Compound 75, 2-nitro-6-({[4′-(trifluoromethoxy) [1,1′-biphenyl]-4-yl]methoxy}methyl)-6,7-dihydro-5H-imidazo[2,1-b][1,3]oxazine] | > 128 | 0.47 (≈ 1.05 µM) | 0.2 (≈ 0.445 µM) | 0.3 (≈ 0.135 µg/mL) | 0.67 (≈ 1.49 µM) | 135 to 138 |  |  |  |  | > 128
CC1(COCc2ccc(OC(F)(F)F)cc2)Cn2cc([N+](=O)[O-])nc2O1 (stereo not drawn) [Compound 25, 2-methyl-6-nitro-2-({[4-(trifluoromethoxy)benzyl]oxy}methyl)-2,3-dihydroimidazo[2,1-b][1,3]oxazole] |  | 0.24 (≈ 0.643 µM) | 0.029 (≈ 0.0777 µM) |  | 0.22 (≈ 0.589 µM) | 110 to 111 | > 128 |  | 0.025 |  | 
